Measurements from patent US20050009924A1 (priority 2003, published 2005).
Read-outs that look alike come from different tables or passages of the source.

Legend:
human hepatoma G2 cells = assay: Cytotoxicity assay (XTT colorimetric), Hep G2; assay type: cell-based; conditions: 48 h of drug exposure
rat glioma C6 cells = assay: Cytotoxicity assay (XTT colorimetric), C6 cells; assay type: cell-based; conditions: 48 h of drug exposure
[1] = tested on: hepatitis B virus transfected hepatoma cell lines, HepG 2.2.15 cells; assay: Cytotoxicity assay, 2.2.15 cells; assay type: cell-based, human; conditions: 48 h of drug exposure
[2] = tested on: transcriptional activity of hTERT; assay: SEAP reporter assay of hTERT expression, PhTERT-SEAP (hTERT-BJ1); assay type: cell-based, human; conditions: hTERT-BJ1
Summary of the method: (§1)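 Cells seeded, grown 24 h at 37° C, refed, then exposed to varying drug amounts for another 24 h. Collected media heated 65° C for 10 min to kill heat-labile phosphatases, mixed with equal SEAP buffer (2 M diethanolamine, 1 mM MgCl2, 20 mM […]) plus 12 mM final p-nitrophenyl phosphate; rate of A405 increase measured.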

[3] = tested on: transcriptional activity of hTERT; assay: SEAP reporter assay of hTERT expression, PhTERT-SEAP (H1299); assay type: cell-based, human; conditions: hTERT-H1299
Summary of the method: as §1

[4] = tested on: non-small-cell lung cancer cells H1299

## O=C1c2cccc(NCCNCCO)c2C(=O)c2cccc(NCCNCCO)c21 [IVe, 1,5-Bis[2-(2-Aminoethylamino)ethanol]anthraquinone]
Human hepatoma G2 cells
  IC50: 1.2 ± 0.02 µM
Rat glioma C6 cells
  IC50: 1.17 µM
[1]
  IC50: 8.35 µM
[2]; 2.4 μM
  Relative SEAP activity (%): 60 ± 11.6%
[2]; 24 μM
  Relative SEAP activity (%): 40 ± 17.3%
[2]; 242 μM
  Relative SEAP activity (%): 52 ± 19.1%
[3]; 2.4 μM
  Relative SEAP activity (%): 87 ± 3.8%
[3]; 24 μM
  Relative SEAP activity (%): 43 ± 5.5%
[3]; 242 μM
  Relative SEAP activity (%): 40 ± 6.7%
hTERT-BJ1 cells; 2.4 µM
  Relative MTT viability (%): 84 ± 19.8%
hTERT-BJ1 cells; 24 µM
  Relative MTT viability (%): 60 ± 11.2%
hTERT-BJ1 cells; 242 µM
  Relative MTT viability (%): 44 ± 12.9%
[4]; 2.4 µM
  Relative MTT viability (%): 97 ± 8.7%
[4]; 24 µM
  Relative MTT viability (%): 37 ± 3.9%
[4]; 242 µM
  Relative MTT viability (%): 11 ± 4.1%
